Results on four compounds are retold here after PubChem BioAssay (NCI).

One may read the TGI as the concentration at which net growth stops. Lower therefore signals greater sensitivity of the cells. For orientation: GI50 means the concentration at which growth is held to half of that of the control.

Among the test systems are OVCAR-3 ovarian; UO-31 renal; UACC-62 melanoma; NCI/ADR-RES ovarian; HL-60(TB) leukemia; SK-MEL-28 melanoma; MDA-MB-435; COLO 205 colon; CAKI-1 renal; MDA-MB-231 breast.
Common to all, as to experiment: DTP human tumour cell line panel, 48 h

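All cell lines were grown in 96-well plates and treated with compound for 48 hours. The concentration for 50% growth inhibition is given as GI50. The concentration for full growth arrest is given as TGI.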 Bounds are passed on as bounds.

Turning to `Cn1c(C(C)(C)OC(=O)Oc2ccccc2)cnc1[N+](=O)[O-]`, the TGI in the assay on OVCAR-3 ovarian, with UO-31 renal, with UACC-62 melanoma, in the assay on NCI/ADR-RES ovarian, with HL-60(TB) leukemia and with SK-MEL-28 melanoma was > 100 µM throughout. In addition, the TGI in the assay on MDA-MB-435, in the assay with COLO 205 colon, with CAKI-1 renal and in the assay on MDA-MB-231 breast was > 100 µM in each case.
Regarding `CC(=O)c1ccc2c(c1)N(CCCN(C)C)c1ccccc1S2`, the GI50 is 16.5 µM in the assay with OVCAR-3 ovarian; 13.5 µM with UO-31 renal; 14.9 µM in the assay with UACC-62 melanoma; 13.6 µM in the assay on NCI/ADR-RES ovarian; 14 µM in the assay with HL-60(TB) leukemia; 16.2 µM in the assay with SK-MEL-28 melanoma. Further, the GI50 with MDA-MB-435 is 11.8 µM; in the assay with COLO 205 colon it was 3.32 µM; in the assay with CAKI-1 renal, 12.6 µM; with MDA-MB-231 breast it was 11.1 µM. For the same compound, the TGI came out at 31.4 µM with OVCAR-3 ovarian; 29.1 µM with UO-31 renal; 29.1 µM with UACC-62 melanoma; 28.3 µM in the assay on NCI/ADR-RES ovarian; 41 µM with HL-60(TB) leukemia; 32 µM in the assay on SK-MEL-28 melanoma. Besides, the concentration for total growth inhibition (TGI) with MDA-MB-435 stood at 25.7 µM; with COLO 205 colon it was 11.7 µM; in the assay on CAKI-1 renal it was 26.4 µM; with MDA-MB-231 breast it was 24.8 µM.
On to `COc1ccc(C#CC2=C(c3cc(OC)c(OC)c(OC)c3)C(=O)OC2)cc1`, for which the GI50 in the assay on OVCAR-3 ovarian was 1.59 µM; in the assay with UO-31 renal, 18.9 µM; in the assay on UACC-62 melanoma it was 5.23 µM; in the assay with NCI/ADR-RES ovarian, 5.82 µM; with HL-60(TB) leukemia, 4.48 µM; with SK-MEL-28 melanoma, 9.28 µM. In addition, the GI50 in the assay on MDA-MB-435 is 1.49 µM; in the assay with COLO 205 colon it was 4.15 µM; in the assay with CAKI-1 renal it was 1.18 µM; in the assay on MDA-MB-231 breast it was 32 µM. Also, the TGI in the assay on OVCAR-3 ovarian is 10.3 µM; in the assay with UO-31 renal it was > 50 µM; in the assay on UACC-62 melanoma, 18.4 µM; in the assay with NCI/ADR-RES ovarian it was 27.9 µM; in the assay on HL-60(TB) leukemia, > 50 µM; in the assay on SK-MEL-28 melanoma, > 50 µM. The TGI in the assay with MDA-MB-435 is 7.82 µM; with COLO 205 colon, > 50 µM; in the assay with CAKI-1 renal, 2.99 µM; with MDA-MB-231 breast it was > 50 µM.
For `CCCCN1CCN(c2ccc3nc(-c4ccc5nc(-c6ccc(OCC)c(OCC)c6)[nH]c5c4)[nH]c3c2)CC1`, the GI50 was 0.358 µM in the assay with OVCAR-3 ovarian; 2 µM in the assay with UO-31 renal; 0.686 µM in the assay with UACC-62 melanoma; > 100 µM in the assay with NCI/ADR-RES ovarian; 0.704 µM in the assay with HL-60(TB) leukemia; 1.01 µM in the assay with SK-MEL-28 melanoma. The GI50 in the assay on MDA-MB-435 is 1.09 µM; in the assay with COLO 205 colon it was 0.231 µM; in the assay on CAKI-1 renal, 1.04 µM; in the assay on MDA-MB-231 breast, 1.69 µM. Further, the TGI is 0.85 µM in the assay with OVCAR-3 ovarian; 5.8 µM in the assay on UO-31 renal; 2.18 µM with UACC-62 melanoma; > 100 µM in the assay with NCI/ADR-RES ovarian; 3.18 µM in the assay on HL-60(TB) leukemia; 2.22 µM in the assay on SK-MEL-28 melanoma. Further, the TGI in the assay on MDA-MB-435 came to 2.39 µM; with COLO 205 colon, 1.52 µM; in the assay on CAKI-1 renal it was 2.52 µM; in the assay with MDA-MB-231 breast it was 3.28 µM.
